Reference: US11786484B2, “Xanthohumol solubilizate” (Aquanova AG, priority 2018, dated 2023)

What was measured:
[1] = tested on: total antioxidant capacity (TAC); assay: Adjuvant induced arthritis in rats: total antioxidant capacity (TAC) in serum; type: in vivo, Wistar rats; conditions: serum of arthritic rats (n=8), once daily for 21 days, mean ± SEM
Experimental: (§1) Anti-inflammatory markers and antioxidant capacity were determined. Female Wistar rats with a body weight between 150 and 200 g were exposed to adjuvant induced arthritis according to Pearson et al. (1956). At day 0, the animals were administered 0.1 ml of Freund's Adjuvant (FCA) in the right hind paw, by subplantar injection. The animals were randomly divided into 12 groups of 8 animals each.
(§2) All extracts or solubilizates were administered orally once daily from day 0 through day 21 following the vaccination with the adjuvant. After day 21, the animals were killed and serum samples were prepared and stored at −80° C. Measurements were made of myeloperoxidase (MPO), C-reactive protein (CRP), total antioxidant capacity (TAC), and thiobarbituratic acid reactive substances (TBARS).
(§3) Oxidative stress is one of the major factors contributing to joint destruction in rheumatoid arthritis (RA). An increase in the production of reactive oxygen species (ROS) leads to a reduced supply of endogenous antioxidants and ultimately results in the destruction of cells. The neutrophil granulocytes released in the rheumatoid joint produce free oxygen radicals which cause increased formation of lipid peroxides manifesting in an increase in serum TBARS. […]

type 1 collagen (COL1A1) = assay: Hepatic expression of type 1 collagen in WTD mice; type: in vivo, mice of the strain C57BL/6; conditions: 2.5 mg/kg daily, 8 weeks
Description: (§4) Male mice of the strain C57BL/6 at an age of 8 weeks either received usual diet or were fed according to the “Western type diet” consisting of 15% pork lard, 15% beef tallow, 4% palmitic acid, 4% stearic acid, 0.2% cholesterol, and 30% sucrose. The control group (CTRL), which received the usual diet, was given an aqueous solution of methylhydroxypropyl cellulose (MHPC, 0.2%, Methocel™ E4M prem) (“vehicle” VH) as a therapy, as was the case with the “Western type diet” group (“WTD”).
(§5) Other groups received the xanthohumol solubilizate (“s-XN”) of the present Applicant or native xanthohumol (“n-XN”) in addition to the WTD. The therapy was conducted over 8 weeks.
(§6) RNA isolation from liver tissue, reverse transcription and quantitative real-time polymerase chain reaction (PCR) analysis were carried out using the “LightCycler” technology (Roche) and specific tests for primers, as described in Hellebrand et al.: “Promoter hypermethylation is causing functional relevant downregulation of methylthioadenosine phosphorylase (MTAP) expression in hepatocellular carcinoma”, Carcinogenesis 2006; 27:64-72.
Type 1 collagen (COL1A1) is the most important extracellular matrix protein in liver fibrosis, both quantitatively and qualitatively.

[2] = tested on: thiobarbituric acid reactive substances TBARS; assay: Adjuvant induced arthritis in rats: TBARS in serum; type: in vivo, Wistar rats; conditions: serum of arthritic rats (n=8), once daily for 21 days, mean ± SEM
Experimental: as §1, §2, §3

C-reactive protein (CRP) = assay: Adjuvant induced arthritis in rats: serum CRP; type: in vivo, Wistar rats; conditions: arthritic rats, 5 mg/kg orally once daily day 0 through day 21; diclofenac 3 mg/kg as reference
Experimental: as §1, §2

WTD fed mice [3] = assay: Intraperitoneal glucose tolerance test (ipGTT) in WTD mice; type: in vivo, mice of the strain C57BL/6; conditions: 2.5 mg/kg daily, after seven weeks
Experimental: (§7) The medical faculty of Friedrich-Alexander University Erlangen Nürnberg (FAU) conducted studies on the effects of xanthohumol on body weight. A dose of 2.5 mg/kg body weight of xanthohumol was administered daily. For this purpose, a solubilizate of the present Applicant was used. It was prepared from 100 g “Xantho-Flav Pure”, 150 g of 96% ethanol, and 750 g of polysorbate 80. For adjusting the concentration to 0.375 mg/ml, the solubilizate was diluted with double-distilled water (“ddH2O”). The corresponding data are marked by “s-XN” in the accompanying figures.
(§8) For comparison, similar experiments were conducted with the same dose of native xanthohumol. For dissolving the native xanthohumol, an aqueous solution of methylhydroxypropyl cellulose (MHPC, 0.2%, Methocel E4M Premium CR, Hypromellose 2910 USP, Fragron Inc., Minnesota, USA) was used. The corresponding data are marked by “n-XN”. […]
After seven weeks of administration of the solubilizate or of native xanthohumol, an intraperitoneal glucose tolerance test (ipGTT) was carried out. […] The concentration of glucose in the blood was measured in samples that were taken from the tail vein prior to glucose administration (fasting glucose) as well as 30, 60, 80, and 120 minutes thereafter. […]

WTD fed mice [4] = assay: Liver weight, hepatic triglyceride level and histology (steatosis) in WTD mice; type: in vivo, mice of the strain C57BL/6; conditions: 2.5 mg/kg daily, 8 weeks
Experimental: as §7, §8
To quantify liver lipids, the latter were extracted and the amount of triglycerides (“hepatic triglyceride level”) was determined using a “GPO-triglyceride kit” (Sigma, Deisenhofen, Germany), as described in Wobser et al.: “Lipid accumulation in hepatocytes induces fibrogenic activation of hepatic stellate cells”, Cell Res 2009; 19:996-1005. […]

[5] = tested on: alpha-smooth muscle actin (α-SMA); assay: Hepatic expression of alpha-smooth muscle actin in WTD mice (qPCR, immunohistochemistry); type: in vivo, mice of the strain C57BL/6; conditions: 2.5 mg/kg daily, 8 weeks
Description: as §4, §5, §6
The α-SMA protein is an established marker of activated hepatic stellate cells (HSC) which trigger liver cirrhosis. An immunohistochemical analysis of the α-SMA protein confirmed that WTD causes significant activation of HSC (FIG. 4B).

myeloperoxidase (MPO) = assay: Adjuvant induced arthritis in rats: serum MPO; type: in vivo, Wistar rats; conditions: arthritic rats, 5 mg/kg orally once daily day 0 through day 21; diclofenac 3 mg/kg as reference
Experimental: as §1, §2

With `COc1cc(O)c(CC=C(C)C)c(O)c1C(=O)/C=C/c1ccc(O)cc1` [native xanthohumol, xanthohumol] the TAC [1] was 63.71 ± 1.02 nmol/µL, the “WTD-induced expression of type 1 collagen” value (type 1 collagen (COL1A1)) was “hardly any effects” and the TBARS [2] was 11.42 ± 1.16 nmol/L. For the same molecule, the “effect on CRP serum level, in words” value (C-reactive protein (CRP)) was “effect comparable to that of diclofenac”, the fasting glucose values (WTD fed mice [3]; 12 hours of fasting) was “did not bring about this effect” and the glucose tolerance (WTD fed mice [3]; ipGTT 3 mg glucose per gram body weight) was “did not bring about this effect”. The “steatosis (liver appearance, histological examinations)” value (WTD fed mice [4]) was “accumulation of fat in the liver (steatosis)”, the “WTD-induced expression of α-SMA” value [5] was “hardly any effects” and the “effect on the serum concentration of MPO, in words” value (myeloperoxidase (MPO)) was “only a slight effect”.
`O=C(O)Cc1ccccc1Nc1c(Cl)cccc1Cl` [Diclofenac, diclofenac] was tested, and the TAC [1] was 82.08 ± 2.96 nmol/µL and the TBARS [2] was 7.93 ± 0.84 nmol/L.
